Experimental findings from the NIST ThermoML archive (doi:10.1016/j.jct.2017.01.004) are described below.

Series [1] is described as follows: Molar enthalpy of transition or fusion. The conditions noted are these: Crystal; DSC.
For series [2] the following is noted: Crystal; DTA.

Molecules are shown by their SMILES. Numbers after ± are expanded uncertainties.

As to `O=C(O)CO` [2-hydroxyethanoic acid], the “Molar enthalpy of transition or fusion” value in series [1] was found to be 4.76 ± 0.263 kcal/mol. Further, the Normal melting temperature in series [2] was determined as 77.60 ± 1.1 °C.
